Values joined by “and” are separate entries in the source; they are usually repeats but may differ in a detail not shown here. Equal values may be shown once. Read-outs that look alike come from different tables or passages of the source.
Columns and labels:
[1] = Steady-state plasma DTG pharmacokinetics with and without CBZ (phase I open-label fixed-sequence crossover study); type: in vivo, human; details: for half-life: read-out: t1/2 (terminal elimination half-life) of DTG, geometric mean (CV%) (converted)
Description: This was a phase I, single-site, open-label, fixed-sequence, crossover study with three treatment periods to evaluate the effect of an oral extended-release formulation of CBZ on the steady-state PK of orally administered DTG in 16 healthy subjects. The study was conducted in accordance with the principles of the Declaration of Helsinki. A written informed consent was obtained from all subjects, and the protocol was approved by the institutional review board of the study site. The trial was registered at ClinicalTrials.gov (NCT01967771; protocol number: 200901). During period 1, subjects received DTG 50 mg once daily as a single agent for days 1 to 5. During period 2, subjects received CBZ alone and the dose was escalated: 100 mg twice daily for days 1 to 3, 200 mg twice daily for days 4 to 6, and 300 mg twice daily for days 7 to 16. During period 3, DTG 50 mg once daily was co-administered with CBZ 300 mg twice daily for days 1 to 5. There was no washout between treatment periods. As CBZ is recommended to be given with food per product information, all doses in the testing unit, including those on PK collection days, were administered orally in the morning 30 min after the start of the moderate-fat meal, and subjects were asked to do the same when dosing outside the unit. Subjects were housed at the clinical research unit from period 1, day 1, until the morning of period 2, day 8, as well as from period 2, day 16, through period 3, day 6. Phone call reminders and pill counts were employed when subjects self-administered CBZ as outpatients during period 2, days 8 to 16. […] Plasma samples were analyzed for DTG by PPD, Inc. (Middleton, WI) using a validated analytical method based on protein precipitation with acetonitrile containing the stable isotope-labeled internal standard (GSK1349572-d7-^15N), followed by high-performance liquid chromatography/tandem mass spectrometry analysis. The lower limit of quantification for DTG in plasma was 20 ng/mL, and the upper limit of quantification was 20,000 ng/mL. Precision and accuracy were evaluated by replicate analyses of human plasma quality control samples prepared at five concentrations: 60, 160, 640, 2400, and 15,200 ng/mL. Precision, measured as the percent coefficient of variation, ranged from 3.0 to 5.9 % across the quality control range. […] Both were within acceptance standards of 15 %. A non-compartmental PK analysis of the DTG concentration-time data was conducted by Phast Clinical Data, Inc. (Raleigh, NC). Pharmacokinetic analyses of plasma DTG concentration-time data were analyzed using Model 200 (for extravascular administration) of Phoenix WinNonlin version 6.3 (Pharsight Corporation, St. Louis, MO). Plasma PK parameters for DTG were calculated using actual elapsed times from dosing. The individual PK parameters that were determined included area under the curve from time zero to the end of the dosing interval (AUC(0-τ)), maximum observed plasma concentration (Cmax), plasma concentration at the end of the dosing interval (Cτ), oral clearance, and terminal half-life. This study was designed to estimate the magnitude of drug-interaction effect of CBZ on the PK parameters of DTG. No formal hypothesis was tested. Instead, an estimation approach was used to evaluate the effect of CBZ on DTG PK. Pharmacokinetic parameters were log-transformed and analyzed by analysis of variance to determine the point estimate and associated 90 % confidence intervals for the difference between test treatment (DTG + CBZ) and reference treatment (DTG alone). These values were then back-transformed to calculate the point and interval estimates for test-to-reference treatment ratios on the original scale. Geometric least-squares mean ratios and 90 % confidence intervals were generated by the mixed-effect model for within-subject treatment comparisons.

[2] = Safety evaluations (adverse events, laboratory tests) in the crossover study; type: in vivo, human; details: for Subjects who experienced at least one AE: by treatment period; for Drug-related adverse events: ALT increased / Drug-related adverse events: Any event / Drug-related adverse events: Asthenia / Drug-related adverse events: Cognitive disorder / Drug-related adverse events: Drug reaction with eosinophilia and systemic symptoms / Drug-related adverse events: Fatigue / Drug-related adverse events: Headache / Drug-related adverse events: Hyponatremia / Drug-related adverse events: Leukopenia / Drug-related adverse events: Lymphopenia / Drug-related adverse events: Nausea / Drug-related adverse events: Pain in extremity / Drug-related adverse events: Photosensitivity reaction / Drug-related adverse events: Pyrexia / Drug-related adverse events: Rash maculopapular / Drug-related adverse events: Thirst / Drug-related adverse events: Thrombocytopenia: DTG alone n = 16, CBZ alone n = 16, DTG + CBZ n = 14
Description: Safety evaluations included the monitoring of adverse events (AEs), physical examinations, clinical chemistry laboratory tests, vital signs, and electrocardiograms. Additionally, assessment of Columbia suicide severity rating scale scores was performed throughout the study, because CBZ exposure (along with exposure to several other AEDs) has been associated with increased risk of suicidal ideation and depression.

[3] = set-up: method as in PMID 25146692, PMID 23075918; details: DTG co-administered with tipranavir/ritonavir, efavirenz, and rifampin; cited from earlier work
[4] = test system: cytochrome P450 (CYP) 3A4; set-up: method as in PMID 23132334; details: minor component; primarily metabolized by UGT1A1; cited from earlier work
P-glycoprotein (P-gp) = test system: P-glycoprotein (P-gp); set-up: method as in PMID 23132334; details: cited from earlier work
CYP isozymes = test system: CYP isozymes; set-up: method as in PMID 23132334; details: in vitro; cited from earlier work
UGT1A1 = test system: UGT1A1; set-up: method as in PMID 23132334; details: in vitro; cited from earlier work
UGT2B7 = test system: UGT2B7; set-up: method as in PMID 23132334; details: in vitro; cited from earlier work
P-gp = test system: P-gp; set-up: method as in PMID 23132334; details: in vitro; cited from earlier work
[5] = test system: breast cancer resistance protein; set-up: method as in PMID 23132334; details: in vitro; cited from earlier work
OATP1B1 = test system: OATP1B1; set-up: method as in PMID 23132334; details: in vitro; cited from earlier work
OATP1B3 = test system: OATP1B3; set-up: method as in PMID 23132334; details: in vitro; cited from earlier work
MRP2 = test system: MRP2; set-up: method as in PMID 23132334; details: in vitro; cited from earlier work
CYP1A2 = test system: CYP1A2; set-up: method as in PMID 23132334; details: in vitro; cited from earlier work
CYP2B6 = test system: CYP2B6; set-up: method as in PMID 23132334; details: in vitro; cited from earlier work
CYP3A4 [6] = test system: CYP3A4; set-up: method as in PMID 23132334; details: in vitro; cited from earlier work
CYP3A4 [7] = test system: CYP3A4; set-up: method as in ref 1 = [1]; 1. Tivicay ® (dolutegravir) [package insert]. Research Triangle Park: ViiV Healthcare; 2014; details: midazolam as probe substrate for CYP3A4, healthy subjects; cited from earlier work
[8] = set-up: method as in ref 11 = [11]; 11. Tegretol ® (carbamazepine) [package insert]. East Hanover: Novartis; 2014; details: cited from earlier work
[9] = DTG 50 mg once daily alone, day 5 of period 1, n = 16
[10] = DTG co-administered with CBZ vs DTG alone
[11] = DTG co-administered with CBZ, 14 subjects with PK results in both periods

C[C@@H]1CCO[C@H]2Cn3cc(C(=O)NCc4ccc(F)cc4F)c(=O)c(O)c3C(=O)N12 [DTG, Dolutegravir]
CL/F (oral clearance) of DTG, geometric mean (CV%) [1, 9]: 0.929 (21.4) L/h
Cτ of plasma DTG, geometric mean (CV%) [1, 9]: 1.20 (39.1) μg/mL
Increase of dolutegravir clearance [1, 10]: 95%
Reduction of geometric mean AUC(0-τ) of DTG [1, 10]: 49%
Reduction of geometric mean Cmax of DTG [1, 10]: 33%
Reduction of geometric mean Cτ of DTG [1, 10]: 73% and ~ 73%
Reduction in AUC(0-τ) on an individual subject basis [1, 11]: 27 to 58%
Reduction in Cτ on an individual subject basis [1, 11]: 53 to 82%
half-life ([1]; human, plasma, oral, DTG 50 mg once daily + CBZ 300 mg twice daily, day 5 of period 3, n = 14): 439 min
Cmax ([1]; human, plasma, oral, DTG 50 mg once daily alone, day 5 of period 1, n = 16, read-out: Cmax of plasma DTG, geometric mean (CV%)): 4160 ng/mL
half-life ([1]; human, plasma, oral, DTG 50 mg once daily alone, day 5 of period 1, n = 16): 774 min
AUC ([1]; human, plasma, DTG 50 mg once daily alone, day 5 of period 1, oral with moderate-fat meal, healthy subjects, n = 16, read-out: AUC(0-τ) of plasma DTG, geometric mean (CV%)): 53800 ng·h/mL
Tolerability ([2]; DTG alone and co-administered with CBZ, healthy subjects): well tolerated
Subjects who experienced at least one AE ([2]; healthy subjects): No subjects experienced AEs
Drug-related adverse events: ALT increased ([2]; healthy subjects): 0 n (%)
Drug-related adverse events: Any event ([2]; healthy subjects): 0 n (%)
Drug-related adverse events: Asthenia ([2]; healthy subjects): 0 n (%)
Drug-related adverse events: Cognitive disorder ([2]; healthy subjects): 0 n (%)
Drug-related adverse events: Drug reaction with eosinophilia and systemic symptoms ([2]; healthy subjects): 0 n (%)
Drug-related adverse events: Fatigue ([2]; healthy subjects): 0 n (%)
Drug-related adverse events: Headache ([2]; healthy subjects): 0 n (%)
Drug-related adverse events: Hyponatremia ([2]; healthy subjects): 0 n (%)
Drug-related adverse events: Leukopenia ([2]; healthy subjects): 0 n (%)
Drug-related adverse events: Lymphopenia ([2]; healthy subjects): 0 n (%)
Drug-related adverse events: Nausea ([2]; healthy subjects): 0 n (%)
Drug-related adverse events: Pain in extremity ([2]; healthy subjects): 0 n (%)
Drug-related adverse events: Photosensitivity reaction ([2]; healthy subjects): 0 n (%)
Drug-related adverse events: Pyrexia ([2]; healthy subjects): 0 n (%)
Drug-related adverse events: Rash maculopapular ([2]; healthy subjects): 0 n (%)
Drug-related adverse events: Thirst ([2]; healthy subjects): 0 n (%)
Drug-related adverse events: Thrombocytopenia ([2]; healthy subjects): 0 n (%)
Reduction of DTG AUC(0-τ) [3]: 36 to 49%
Reduction of DTG Cτ [3]: 72 to 76%
Component of metabolism via CYP3A4 [4]: approximately 10%
Substrate of P-gp (P-glycoprotein (P-gp)): substrate of P-glycoprotein
Direct inhibition of CYP isozymes (CYP isozymes): minimal or no direct inhibition
Direct inhibition of UGT1A1 (UGT1A1): minimal or no direct inhibition
Direct inhibition of UGT2B7 (UGT2B7): minimal or no direct inhibition
Direct inhibition of P-gp (P-gp): minimal or no direct inhibition
Direct inhibition of breast cancer resistance protein [5]: minimal or no direct inhibition
Direct inhibition of OATP1B1 (OATP1B1): minimal or no direct inhibition
Direct inhibition of OATP1B3 (OATP1B3): minimal or no direct inhibition
Direct inhibition of MRP2 (MRP2): minimal or no direct inhibition
Induction of CYP1A2 (CYP1A2): not an inducer
Induction of CYP2B6 (CYP2B6): not an inducer
Induction of CYP3A4 (CYP3A4 [6]): not an inducer
Effect on midazolam exposure (CYP3A4 [7]): no significant effect

NC(=O)N1c2ccccc2C=Cc2ccccc21 [CBZ, Carbamazepine]
Subjects who experienced at least one AE ([2]; healthy subjects): six
Drug-related adverse events: ALT increased ([2]; healthy subjects): 1 (6) n (%)
Drug-related adverse events: Any event ([2]; healthy subjects): 6 (38) n (%)
Drug-related adverse events: Asthenia ([2]; healthy subjects): 1 (6) n (%)
Drug-related adverse events: Cognitive disorder ([2]; healthy subjects): 1 (6) n (%)
Drug-related adverse events: Drug reaction with eosinophilia and systemic symptoms ([2]; healthy subjects): 1 (6) n (%)
Drug-related adverse events: Fatigue ([2]; healthy subjects): 0 n (%)
Drug-related adverse events: Headache ([2]; healthy subjects): 2 (13) n (%)
Drug-related adverse events: Hyponatremia ([2]; healthy subjects): 1 (6) n (%)
Drug-related adverse events: Leukopenia ([2]; healthy subjects): 1 (6) n (%)
Drug-related adverse events: Lymphopenia ([2]; healthy subjects): 1 (6) n (%)
Drug-related adverse events: Nausea ([2]; healthy subjects): 1 (6) n (%)
Drug-related adverse events: Pain in extremity ([2]; healthy subjects): 1 (6) n (%)
Drug-related adverse events: Photosensitivity reaction ([2]; healthy subjects): 0 n (%)
Drug-related adverse events: Pyrexia ([2]; healthy subjects): 1 (6) n (%)
Drug-related adverse events: Rash maculopapular ([2]; healthy subjects): 1 (6) n (%)
Drug-related adverse events: Thirst ([2]; healthy subjects): 1 (6) n (%)
Drug-related adverse events: Thrombocytopenia ([2]; healthy subjects): 2 (13) n (%)
White blood cell count (decrease) ([2]; one subject with suspected grade 2 hypersensitivity syndrome on 300 mg CBZ twice daily, period 2, baseline 8800 cells/mm^3): 3800 cells/mm^3
Subjects permanently discontinued because of AEs ([2]; period 2 (CBZ alone)): Two
Platelet count (low) ([2]; same subject on 300 mg CBZ twice daily, 159,000 3 days before): 78,000 cells/mm^3
ALT level (high) ([2]; same subject on 300 mg CBZ twice daily, grade 2): 151 IU/L
half-life ([8]; following chronic dosing): 12 to 17 h
half-life ([8]; following single dosing): 25 to 65 h

Reference: PMC4865535, “Effect of carbamazepine on dolutegravir pharmacokinetics and dosing recommendation” (European Journal of Clinical Pharmacology, 2016)
